Laboratory results taken from US12157745B2, “Heterocyclic systems and pharmaceutical compositions thereof” (University of Sharjah, priority 2018, dated 2024).

Tests used:
Type in all cases: cell-based
[1] = system: MCF7 cells; assay: Cell synchronization study, antiproliferative effect on synchronized cells
Experimental: (§1) Cell synchronization and tubulin study: The antiproliferative effect of the compound it was tested on MCF7 cells which were synchronized at specific phases of the cell cycle. […] One way of inhibiting cell proliferation in G2/M phase is by altering equilibrium between polymerization and depolymerization of microtubule proteins which is required for active mitotic cell division.

[2] = system: H2AX; assay: DNA damage study, H2AX phosphorylation (western blot); details: SKBr3 cells; IC50 and Double IC50 treatments
Source text: DNA damage studies: One of the main properties of any efficient chemotherapeutic drug is to induce DNA damage in tumor cells either directly or indirectly by generating harmful DNA crosslinks, which can lead to apoptosis and impact the cell by disrupting gene function and/or impairing transcription, DNA replication, and cell proliferation. To gain additional knowledge of compound it's anticancer properties, its mechanism of action to induce DNA damage was studied in breast and colon cancer cells (FIG. 8). One of the critical post-translational modifications of chromatin is phosphorylation of multiple proteins involved in DNA damage pathway and one of the earliest events during DNA double strand break is the phosphorylation of Ser139 on the specialized histone called H2AX, which is then referred to as γ-H2AX.
The MCF-7, SKBR3 and HCT116 total cell lysate were prepared after 24 hours of treatment with compound it at IC50 and DIC50 doses by using 1× laemmli buffer. Total protein concentration was then estimated for each sample and 15-30 μg of protein lysate were loaded equally on 12% SDS-PAGE gel in order to detect various proteins expression levels. In short, the membrane was incubated with different primary antibodies (as mentioned in above section) (1:1000) overnight after blocking with 5% non-fat milk solution for 1 hour. […]

[3] = system: ATR; assay: DNA damage study, ATR phosphorylation (western blot); details: also its downstream target p53
Experimental: (§2) However, recruitment of phosphatidylinositol-3-kinase (PI3K) family members to the site of DNA damage is the first step of DNA damage response mechanisms and the phosphorylation of ataxia telangiectasia-mutated (ATM) or ATM-Rad3-related (ATR) kinases often follows. […] Overall, compound it was able to induce DNA damage in an ATR-Chk2 dependent pathway in aggressive breast cancer phenotypes.
(§3) The MCF-7, SKBR3 and HCT116 total cell lysate were prepared after 24 hours of treatment with compound it at IC50 and DIC50 doses by using 1× laemmli buffer. Total protein concentration was then estimated for each sample and 15-30 μg of protein lysate were loaded equally on 12% SDS-PAGE gel in order to detect various proteins expression levels. In short, the membrane was incubated with different primary antibodies (as mentioned in above section) (1:1000) overnight after blocking with 5% non-fat milk solution for 1 hour. The membrane was then re-probed with respective mouse/rabbit secondary antibodies (1:2000) for 1 h, and later developed by enhanced chemiluminescence (ECL) method by using a Chemidoc MP (BioRad, Germany).

[4] = system: tubulin; assay: Tubulin polymerization / microtubule formation (immunofluorescence and kit method); details: in comparison to colchicine and taxol (positive controls); FIGS. 4A and 4B
Experimental: as §1
An immunofluorescence method is used for detecting tubulin polymerization effect of compound 1t. The cells (5×10^4/well) were plated overnight on coverslips on a six well plate and treated with IC50 concentration of compound 1t, taxol and colchicine for 24 hours. After treatment, the cells were rinsed twice with PBS, fixed with 3.7% paraformaldehyde, and permeabilized with 0.1% Triton X-100. The cells were then blocked with 1% BSA in PBS for 1 hour before further incubation with anti-p-tubulin mouse monoclonal antibody overnight at 4° C. (Cell Signaling, San Francisco, CA). […]
Tubulin polymerization was measured in vitro using the Tubulin Polymerization Assay kit (Cytoskeleton, Denver, CO). […] The polymerization of tubulin was monitored as fluorescence at 37° C. for 60 min, and the reading speed was programmed at 1 cycle/min with excitation and emission wavelengths of 360 and 450 nm, respectively, using the Varioskan® Flash spectral scanning multimode reader (Thermo Fisher Scientific™). […]

[5] = system: SKBr3 cells; assay: Apoptosis study (western blot, caspase-3 activation); details: multi-drug resistant breast cancer cells SKBr3
Experimental: Apoptosis studies: The molecular effect of compound it was evaluated by investigating its apoptotic (FIG. 5) and cell cycle arresting potentials (FIGS. 6A and 6B). Compound it arrests the cells at G0/G1 phase in MCF-7 cells (>15%) with respect to control cells after 16, 24, 48, and 72 hours of treatment.
as §3
(§4) The apoptotic level was measured using a kit method as per supplier's protocol. […] 2×10^6 cells were counted and re-suspended in 1 mL of binding buffer (1×). […] 400 μL of IX binding buffer was finally added to the cells and analyzed immediately by using by a flow cytometer (BD, Accuri C6).

[6] = system: p-Chk2; assay: DNA damage study, p-Chk2 expression (western blot)
Experimental: as §2, §3

[7] = system: Bid, Bax, caspase-3 & -9, Bcl-xL; assay: Western blot and annexin V, pro- and anti-apoptotic proteins; details: western blot, confirmed by annexin V study
Experimental: Over-expression of this oncogene could result in tumor cell proliferation and migration and therefore its inhibition may halt tumor growth. Other pro-apoptotic (Bid, Bax, caspase-3 & -9) and anti-apoptotic (Bcl-xL) proteins were also modulated by compound it as evident from western blot analysis and as confirmed by annexin V study (FIG. 7).
as §3, §4

With `CC1(C)[C@H]2COc3ccc4ccccc4c3[C@H]2N=C2SC(c3ccccc3)=C(c3ccccc3)N21` [Compound 1t] the “Sensitivity of G2/M-arrested cells versus asynchronous cells” value ([1]; MCF7 cells synchronized at specific phases of the cell cycle) was “more sensitive”, the “Cells arrested at G2/M phase” value ([1]; synchronized MCF7 cells) was 18.5% and the H2AX phosphorylation [2] was “induced H2AX phosphorylation”. The ATR phosphorylation [3] was “phosphorylates ATR”, the “Inhibition of microtubule formation” value [4] was “strong inhibition” and the Apoptotic induction [5] was “mitochondrial-mediated apoptotic induction with caspase-3 activation”. The “Checkpoint kinase p-Chk2 expression” value [6] was “elevated levels” and the “Pro-apoptotic (Bid, Bax, caspase-3 & -9) and anti-apoptotic (Bcl-xL) proteins” value [7] was “modulated”.
